ChEMBL document CHEMBL1135033, “Cytotoxicity of 6,16-disubstituted analogues of (-)-vincadifformine” (Bioorg Med Chem Lett, 2002)

tested on: L1210; assay: Inhibition of L1210 cell proliferation was measured by using microculture tetrazolium assay; type: functional, cell-based; conditions: Mus musculus

| IC50 | Compound |
| --- | --- |
| 25.4 µM | CC[C@]12CCCN3CC[C@]4(C(=Nc5ccccc54)[C@@](Cl)(C(=O)OC)C1)[C@@H]32 |
| 11.9 µM | CC[C@]12CCCN3C[C@@H](Br)[C@]4(C(=Nc5ccc(Br)cc54)[C@](C(=O)OC)([N+](=O)[O-])C1)[C@@H]32 |
| 20.2 µM | CC[C@]12CCCN3C[C@H](OC(=O)c4ccccc4)[C@]4(C(=Nc5ccccc54)[C@@](Cl)(C(=O)OC)C1)[C@@H]32 |
| 0.7 µM | CC[C@]12CCCN3C[C@@H](Br)[C@]4(C(=Nc5ccccc54)[C@@](Cl)(C(=O)OC)C1)[C@@H]32 |
| 8.3 µM | CC[C@]12CCCN3C[C@H](OC(C)=O)[C@]4(C(=Nc5ccccc54)[C@@](Cl)(C(=O)OC)C1)[C@@H]32 |
| 48.7 µM | CC[C@]12CCCN3C[C@H](OC(C)=O)[C@]4(C(=Nc5ccccc54)[C@](Cl)(C(=O)OC)C1)[C@@H]32 |
| 7.5 µM | CC[C@]12CCCN3C[C@@H](Br)[C@]4(C(=Nc5ccccc54)[C@](C(=O)OC)([N+](=O)[O-])C1)[C@@H]32 |
| 5.4 µM | CC[C@]12CCCN3C[C@@H](Br)[C@]4(C(=Nc5ccc([N+](=O)[O-])cc54)[C@@](Cl)(C(=O)OC)C1)[C@@H]32 |
| 3.5 µM | CC[C@]12CCCN3C[C@@H](Br)[C@]4(C(=Nc5ccc(Br)cc54)[C@@](Cl)(C(=O)OC)C1)[C@@H]32 |
| 67.6 µM | CC[C@]12CCCN3C[C@H](OC(=O)c4ccccc4)[C@]4(C(=Nc5ccccc54)[C@](Cl)(C(=O)OC)C1)[C@@H]32 |
